Source: ChEMBL document CHEMBL1201862, “PubChem BioAssay data set” (2004)
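All cell lines were grown in 96-well plates and treated with compound for 48 hours. Abbreviation: GI50, concentration required for 50% inhibition of growth.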 Activity calls are given as the source filed them. No stated cut-off is given here; in the data, active = GI50 up to about 1.1 µM and inactive = higher.

What was measured:
Experiment in all cases: NCI-60 cell line screen, 48 h
SN12C = tested on: SN12C
SK-MEL-28 = tested on: SK-MEL-28
SF-268 = tested on: SF-268
NCI-H460 = tested on: NCI-H460
SW-620 = tested on: SW-620
SK-MEL-2 = tested on: SK-MEL-2
RXF 393 = tested on: RXF 393
IGROV-1 = tested on: IGROV-1
COLO 205 = tested on: COLO 205
NCI-H522 = tested on: NCI-H522
SK-MEL-5 = tested on: SK-MEL-5
KM12 = tested on: KM12
OVCAR-5 = tested on: OVCAR-5
OVCAR-4 = tested on: OVCAR-4
CAKI-1 = tested on: CAKI-1
UACC-257 = tested on: UACC-257
HL-60 = tested on: HL-60
SK-OV-3 = tested on: SK-OV-3
UACC-62 = tested on: UACC-62
Malme-3M = tested on: Malme-3M

Measured: GI50

COC1=CC(=O)C=C(OC)C1=O [2,6-DIMETHOXYQUINONE]
inactive: SN12C 15.6 µM | SK-MEL-28 21.8 µM | SF-268 6.46 µM | NCI-H460 23.7 µM | SW-620 6.37 µM | SK-MEL-2 6.55 µM | RXF 393 7.96 µM | IGROV-1 11.3 µM | COLO 205 12.6 µM | NCI-H522 7.05 µM | SK-MEL-5 20.9 µM | KM12 16.4 µM | OVCAR-5 28.1 µM | OVCAR-4 7.43 µM | CAKI-1 50.4 µM | UACC-257 10.2 µM | HL-60 3.94 µM | SK-OV-3 17.9 µM | UACC-62 5.33 µM | Malme-3M 20.2 µM
